Laboratory results published in patent US7595401B2, “Therapeutic compounds and their use in cancer” (Myriad Pharmaceuticals, Inc., priority 2006, dated 2009).

Target: purified human Hsp90
Assay: Binding Assay: fluorescence polarization with BODIPY-labeled geldanamycin
Details: BODIPY-GM 10 nM, Hsp90 30 nM
Outline: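 Compounds in 2% DMSO final compete with 10 nM BODIPY-GM for 30 nM purified human Hsp90, incubated overnight at room temperature in pH 7.3 HEPES buffer containing Na2MoO4 and DTT. Polarization (mP, ex/em 485/530) normalized to DMSO gives percent inhibition; autofluorescence-confounded data excluded.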

| SMILES | IC50 | % Inhibition at 5 μM Compound Concentration |
| --- | --- | --- |
| CC(C)(C)OC(=O)CN1CCCCC1CCn1c(Sc2cc3c(cc2Br)OCO3)nc2c(N)ncnc21 (stereo not shown) [Example 645, tert-Butyl [2-(2-{6-amino-8-[(6-bromo-1,3-benzodioxol-5-yl)thio]-9 H-purin-9-yl}ethyl)piperidin-1-yl]acetate] | 450 nM |  |
| Nc1ncnc2c1nc(Sc1cc3c(cc1Br)OCO3)n2CCCC1CCCCN1 (stereo not shown) [Example 646, 8-[(6-bromo-1,3-benzodioxol-5-yl)thio]-9-(3-piperidin-2-ylpropyl)-9H-purin-6-amine] | 60 nM |  |
| Nc1ncnc2c1nc(Sc1cc3c(cc1Br)OCO3)n2CC1CCNCC1 [Example 648, 8-[(6-bromo-1,3-benzodioxol-5-yl)thio]-9-(piperidin-4-ylmethyl)-9H-purin-6-amine] | 684 nM |  |
| Nc1ncnc2c1nc(Sc1cc3c(cc1Br)OCO3)n2CCC1CCCCN1CC(=O)O (stereo not shown) [Example 650, [2-(2-{6-amino-8-[(6-bromo-1,3-benzodioxol-5-yl)thio]-9H-purin-9-yl}ethyl)piperidin-1-yl]acetic acid] | > 2000 nM |  |
| CC(=O)N1CCC(CCn2c(Sc3nc4ccc([N+](=O)[O-])cc4s3)nc3c(N)ncnc32)CC1 [Example 651, 9-[2-(1-Acetylpiperidin-4-yl)ethyl]-8-[(6-nitro-1,3-benzothiazol-2-yl)thio]-9H-purin-6-amine] | > 5000 nM |  |
| CC(=O)N1CCC(CCn2cnc(N)c3nc(Sc4nc5ccc([N+](=O)[O-])cc5s4)nc2-3)CC1 [Example 652, 3-[2-(1-Acetylpiperidin-4-yl)ethyl]-8-[(6-nitro-1,3-benzothiazol-2-yl)thio]-3H-purin-6-amine] |  | 0.00% |
| CC(=O)N1CCC(CCn2c(Sc3nc4c(Cl)cccc4s3)nc3c(N)ncnc32)CC1 [Example 653, 9-[2-(1-Acetylpiperidin-4-yl)ethyl]-8-[(4-chloro-1,3-benzothiazol-2-yl)thio]-9H-purin-6-amine] | > 2000 nM |  |
| CC(=O)N1CCC(CCn2c(Sc3nc(C)c(C)s3)nc3c(N)ncnc32)CC1 [Example 654, 9-[2-(1-Acetylpiperidin-4-yl)ethyl]-8-[(4,5-dimethyl-1,3-thiazol-2-yl)thio]-9H-purin-6-amine] | 2000 nM |  |
| CC(=O)N1CCC(CCn2c(Sc3nc4ccc(F)cc4s3)nc3c(N)ncnc32)CC1 [Example 655, 9-[2-(1-Acetylpiperidin-4-yl)ethyl]-8-[(6-fluoro-1,3-benzothiazol-2-yl)thio]-9H-purin-6-amine] | > 5000 nM |  |
| CC(=O)N1CCC(CCn2c(Sc3nc4cc(Cl)ccc4s3)nc3c(N)ncnc32)CC1 [Example 656, 9-[2-(1-Acetylpiperidin-4-yl)ethyl]-8-[(5-chloro-1,3-benzothiazol-2-yl)thio]-9H-purin-6-amine] | > 5000 nM |  |
| CC(=O)N1CCC(CCn2c(Sc3nc4cccc(Cl)c4s3)nc3c(N)ncnc32)CC1 [Example 657, 9-[2-(1-Acetylpiperidin-4-yl)ethyl]-8-[(7-chloro-1,3-benzothiazol-2-yl)thio]-9H-purin-6-amine] | 190 nM |  |
| COc1ccc2sc(Sc3nc4c(N)ncnc4n3CCC3CCN(C(C)=O)CC3)nc2c1 [Example 658, 9-[2-(1-Acetylpiperidin-4-yl)ethyl]-8-[(5-methoxy-1,3-benzothiazol-2-yl)thio]-9H-purin-6-amine] | > 5000 nM |  |
| CC(=O)N1CCC(CCn2c(Sc3nc4ccccc4s3)nc3c(N)ncnc32)CC1 [Example 659, 9-[2-(1-Acetylpiperidin-4-yl)ethyl]-8-(1,3-benzothiazol-2-ylthio)-9H-purin-6-amine] | 4000 nM |  |
| CC(=O)N1CCC(CCn2c(Sc3nc(C)c(CC(N)=O)s3)nc3c(N)ncnc32)CC1 [Example 660, 2-[2-({9-[2-(1-Acetylpiperidin-4-yl)ethyl]-6-amino-9H-purin-8-yl}thio)-4-methyl-1,3-thiazol-5-yl]acetamide] | > 5000 nM |  |
| Nc1ncnc2c1nc(Sc1nc3cccc(Cl)c3s1)n2CCC1CCN(C=O)CC1 [Example 661, 4-(2-{6-Amino-8-[(7-chloro-1,3-benzothiazol-2-yl)thio]-9H-purin-9yl}-ethyl)-piperidin-1-carbaldehyde] | 60 nM |  |
| CC(C)(C)OC(=O)NC(CCn1c(Sc2cc3c(cc2Br)OCO3)nc2c(N)ncnc21)C1CC1 (stereo not shown) [Example 662, tert-Butyl (3-{6-amino-8-[(6-bromo-1,3-benzodioxol-5-yl)thio]-9H-purin-9-yl}-1-cyclopropylpropyl)carbamate] | 300 nM |  |
| CC(C)(C)OC(=O)NC(CCn1cnc(N)c2nc(Sc3cc4c(cc3Br)OCO4)nc1-2)C1CC1 (stereo not shown) [Example 663, tert-butyl (3-{6-amino-8-[(6-bromo-1,3-benzodioxol-5-yl)thio]-3H-purin-3-yl}-1-cyclopropylpropyl)carbamate] |  | 15% |
| COc1ccc(OC)c(Sc2nc3c(N)ncn(CCC(NC(=O)OC(C)(C)C)C4CC4)c-3n2)c1 (stereo not shown) [Example 665, tert-Butyl(3-{6-amino-8-[(2,5-dimethoxyphenyl)thio]-3H-purin-3-yl}-1-cyclopropylpropyl)carbamate] |  | 0% |
| CC(C)(C)OC(=O)NC(CCn1c(Sc2cc3c(cc2Br)OCO3)nc2c(N)ncnc21)C1CCSCC1 (stereo not shown) [Example 666, tert-Butyl[3-{6-amino-8-[(6-bromo-1,3-benzodioxol-5-yl)thio]-9H-purin-9-yl}-1-(tetrahydro-2H-thiopyran-4-yl)propyl]carbamate] | 800 nM |  |
| COc1ccc(OC)c(Sc2nc3c(N)ncnc3n2CCC(NC(=O)OC(C)(C)C)C2CCSCC2)c1 (stereo not shown) [Example 668, tert-Butyl[3-{6-amino-8-[(2,5-dimethoxyphenyl)thio]-9H-purin-9-yl}-1-(tetrahydro-2H-thiopyran-4-yl)propyl]carbamate] | 4800 nM |  |
| COc1ccc(OC)c(Sc2nc3c(N)ncn(CCC(NC(=O)OC(C)(C)C)C4CCSCC4)c-3n2)c1 (stereo not shown) [Example 669, tert-Butyl[3-{6-amino-8-[(2,5-dimethoxyphenyl)thio]-3H-purin-3-yl}-1-(tetrahydro-2H-thiopyran-4-yl)propyl]carbamate] |  | 10% |
| CC(C)(C)OC(=O)NC(CCn1c(Sc2cc3c(cc2Br)OCO3)nc2c(N)ncnc21)C1CCCCC1 (stereo not shown) [Example 670, tert-Butyl(3-{6-amino-8-[(6-bromo-1,3-benzodioxol-5-yl)thio]-9H-purin-9-yl}-1-cyclohexylpropyl)carbamate] | 1600 nM |  |
| CC(C)(C)OC(=O)NC(CCn1cnc(N)c2nc(Sc3cc4c(cc3Br)OCO4)nc1-2)C1CCCCC1 (stereo not shown) [Example 671, tert-Butyl(3-{6-amino-8-[(6-bromo-1,3-benzodioxol-5-yl)thio]-3H-purin-3-yl}-1-cyclohexylpropyl)carbamate] | 1000 nM |  |

The next lines start with the values.

| IC50 | % Inhibition at 5 μM Compound Concentration | SMILES |
| --- | --- | --- |
| 900 nM |  | CC(C)(C)OC(=O)NC(CCn1c(Sc2cc3c(cc2Br)OCO3)nc2c(N)ncnc21)C1CCC1 (stereo not shown) [Example 672, tert-Butyl(3-{6-amino-8-[(6-bromo-1,3-benzodioxol-5-yl)thio]-9H-purin-9-yl}-1-cyclobutylpropyl)carbamate] |
|  | 0% | CC(C)(C)OC(=O)NC(CCn1cnc(N)c2nc(Sc3cc4c(cc3Br)OCO4)nc1-2)C1CCC1 (stereo not shown) [Example 673, tert-Butyl(3-{6-amino-8-[(6-bromo-1,3-benzodioxol-5-yl)thio]-3H-purin-3-yl}-1-cyclobutylpropyl)carbamate] |
| 80 nM |  | CS(=O)(=O)NC(CCn1c(Sc2cc3c(cc2Br)OCO3)nc2c(N)ncnc21)C1CC1 (stereo not shown) [Example 674, N-(3-{6-Amino-8-[(6-bromo-1,3-benzodioxol-5-yl)thio]-9H-purin-9-yl}-1-cyclopropylpropyl)methanesulfonamide] |
|  | 49% | CS(=O)(=O)NC(CCn1cnc(N)c2nc(Sc3cc4c(cc3Br)OCO4)nc1-2)C1CC1 (stereo not shown) [Example 675, N-(3-{6-Amino-8-[(6-bromo-1,3-benzodioxol-5-yl)thio]-3H-purin-3-yl}-1-cyclopropylpropyl)methanesulfonamide] |
| 950 nM |  | COc1ccc(OC)c(Sc2nc3c(N)ncnc3n2CCC(NS(C)(=O)=O)C2CC2)c1 (stereo not shown) [Example 676, N-(3-{6-Amino-8-[(2,5-dimethoxyphenyl)thio]-9H-purin-9-yl}-1-cyclopropylpropyl)methanesulfonamide] |
|  | 14% | CC(C)(C)OC(=O)NC(CCn1cnc(N)c2nc(Sc3cc4c(cc3Br)OCO4)nc1-2)C1CCCC1 (stereo not shown) [Example 680, {3-[6-Amino-8-(6-bromo-benzo[1,3]dioxol-5-ylsulfanyl)-purin-3-yl]-1-cyclopentyl-propyl}-carbamic acid tert-butyl ester] |
| 1000 nM |  | CC(C)(C)OC(=O)NC(CCn1c(Sc2cc3c(cc2Br)OCO3)nc2c(N)ncnc21)C1CCCC1 (stereo not shown) [Example 681, {3-[6-Amino-8-(6-bromo-benzo[1,3]dioxol-5-ylsulfanyl)-purin-9-yl]-1-cyclopentyl-propyl}-carbamic acid tert-butyl ester] |
| 190 nM |  | CC(C)(C)OC(=O)NC(CCn1c(Sc2cc3c(cc2Br)OCO3)nc2c(N)ncnc21)C1CCOCC1 (stereo not shown) [Example 682, [3-[6-Amino-8-(6-bromo-benzo[1,3]dioxol-5-ylsulfanyl)-purin-9-yl]-1-(tetrahydro-pyran-4-yl)-propyl]-carbamic acid tert-butyl ester] |
|  | 5% | CC(C)(C)OC(=O)NC(CCn1cnc(N)c2nc(Sc3cc4c(cc3Br)OCO4)nc1-2)C1CCOCC1 (stereo not shown) [Example 683, [3-[6-Amino-8-(6-bromo-benzo[1,3]dioxol-5-ylsulfanyl)-9H-purin-3-yl]-1-(tetrahydro-pyran-4-yl)-propyl]-carbamic acid tert-butyl ester] |
| 80 nM |  | Nc1ncnc2c1nc(Sc1cc3c(cc1Br)OCO3)n2CCC(N)C1CC1 (stereo not shown) [Example 687, 9-(3-Amino-3-cyclopropylpropyl)-8-[(6-bromo-1,3-benzodioxol-5-yl)thio]-9H-purin-6-amine] |
|  | 30% | Nc1ncn(CCC(N)C2CC2)c2nc(Sc3cc4c(cc3Br)OCO4)nc1-2 (stereo not shown) [Example 688, 3-(3-Amino-3-cyclopropylpropyl)-8-[(6-bromo-1,3-benzodioxol-5-yl)thio]-3H-purin-6-amine] |
